# Laboratory results taken from patent US20260183277A1, “ANTIVIRAL PHARMACEUTICAL COMPOSITION COMPRISING ERRy INHIBITOR AS ACTIVE INGREDIENT” (priority 2024, published 2026).
# System: SARS-CoV-2 KCDC03
# Type: cell-based
structure (smiles),measurement,value
CC(C)N1CCN(c2ccc(/C(=C(/CCCO)c3ccccc3)c3ccc(O)cc3)cc2)CC1 [DN200434],"genome replication, progeny production, and protein synthesis of SARS-CoV-2",effectively suppressed
